For the data set the following is noted: 101.33 kPa, Liquid, Photoacoustic measurements.

Each structure is given as a SMILES string. ± gives the expanded uncertainty stated by the source.

With `OCCO` [1,2-ethanediol], the thermal diffusivity is 9.84e-08 ± 3.9e-09 m2/s (298.15 K); 9.73e-08 ± 3.9e-09 m2/s (308.15 K); 9.68e-08 ± 3.9e-09 m2/s (318.15 K); 9.49e-08 ± 3.8e-09 m2/s (328.15 K); 9.42e-08 ± 3.8e-09 m2/s (338.15 K).

On to `O` [water], for which the thermal diffusivity runs as follows: (298.15 K) 1.49e-07 ± 6e-09 m2/s; (308.15 K) 1.53e-07 ± 6e-09 m2/s; (318.15 K) 1.56e-07 ± 6e-09 m2/s; (328.15 K) 1.59e-07 ± 6e-09 m2/s; (338.15 K) 1.61e-07 ± 6e-09 m2/s.
